SMILES strings stand for the structures. Bounds are passed on as bounds.

From patent US20160143913A1, “COMBINATION” (Novartis AG, priority 2009, published 2016) come the findings set out here.

What all share (format): cell-based
One test deals with NCI-H727. Briefly: Cell growth inhibition assay (Cell Titer Glo), NCI-H727. The following applies: Homo sapiens, 72 h; NCI-H727 lung; KRAS_G12V; PIK3CA/PTEN WT; single agent, 3 days, mean ± std. From the text: (§1) Human breast tumor line, MDA-MB-175-VII, human colon tumor lines, Colo-205, DLD-1, HCT-8, HT-29, LS-1034, NCI-H508, RKO, SW1417, SW1463, SW480, SW837 and T84, and human lung tumor lines, A427, A549, Calu 3, Calu 6, HCC827, NCI-H1155, NCI-H1355, NCI-H1792, NCI-H23, NCI-H727, SW1573 and SW900 were from ATCC. Human breast tumor line EFM-19 was from German Collection of Microorganisms and Cell Cultures. Human lung tumor line COR-L23 was from European Collection of Cell Cultures (UK). Human colon tumor line KM12 and human lung tumor line Hop62 were from National Cancer Institute. MV522 was from University of California at San Diego. All lines were cultured in RPMI 1640 medium containing 10% fetal bovine serum (FBS).
(§2) All cells were cultured for a minimum of 72 hours prior to cell plating. […] ATP levels were determined by adding Cell Titer Glo® (Promega) according to the manufacturer's protocol. Briefly, Cell Titer Glo® was added each plate, incubated for 30 minutes then luminescent signal was read on the SpectraMax L plate reader with a 0.5 sec integration time.
(§3) Inhibition of cell growth was estimated after treatment with compound or combination of compounds for three days and comparing the signal to cells treated with vehicle (DMSO). Cell growth was calculated relative to vehicle (DMSO) treated control wells. […]
Background: ATP-based viability assays read luminescence as a measure of living cells.

In a further test the test system is HT-29. Briefly: Cell growth inhibition assay (Cell Titer Glo), HT-29. The following applies: Homo sapiens, 72 h; HT-29 colon; BRAF_V600E; PIK3CA_P449T; single agent, 3 days, mean ± std.
Description: as §1, §2, §3

A further test relates to NCI-H1155. The test is described as follows: Cell growth inhibition assay (Cell Titer Glo), NCI-H1155. The conditions noted are these: Homo sapiens, 72 h; NCI-H1155 lung; KRAS_Q61H; PTEN_R233*; single agent, 3 days, mean ± std.
Description: as §1, §2, §3

The test system of a further test is HCT-8. The test is described as follows: Cell growth inhibition assay (Cell Titer Glo), HCT-8. The following applies: Homo sapiens, 72 h; HCT-8 colon; KRAS_G13D; PIK3CA_E545K; single agent, 3 days, mean ± std.
Description: as §1, §2, §3

The subject of another test is SW837. Briefly: Cell growth inhibition assay (Cell Titer Glo), SW837. The conditions noted are these: Homo sapiens, 72 h; SW837 colon; KRAS_G12C; PIK3CA/PTEN WT; single agent, 3 days, mean ± std.
Description: as §1, §2, §3

For a further test, the system named is NCI-H23. The test is described as follows: Cell growth inhibition assay (Cell Titer Glo), NCI-H23. The following applies: Homo sapiens, 72 h; NCI-H23 lung; KRAS_G12C; PIK3CA/PTEN WT; single agent, 3 days, mean ± std.
Description: as §1, §2, §3

The subject of a further test is DLD1. The test is described as follows: Cell growth inhibition assay (Cell Titer Glo), DLD1. The following applies: Homo sapiens, DLD-1, 72 h; DLD1 colon; KRAS_G13D; PIK3CA_E545K; single agent, 3 days, mean ± std.
Description: as §1, §2, §3

In the case of `CC(=O)Nc1cccc(-n2c(=O)n(C3CC3)c(=O)c3c(Nc4ccc(I)cc4F)n(C)c(=O)c(C)c32)c1` [Compound A, N-{3-[3-cyclopropyl-5-(2-fluoro-4-iodo-phenylamino)-6,8-dimethyl-2,4,7-trioxo-3,4,6,7-tetrahydro-2H-pyrido[4,3-d]pyrimidin-1-yl]phenyl}acetamide], the IC50 in the test with NCI-H727 is 2 nM; in the test with HT-29 it was 2 ± 1 nM; in the test on NCI-H1155, above 1000 nM; in the test with HCT-8, 55 ± 11 nM.

On to `Cn1ncc(Cl)c1-c1cc(C(=O)N[C@H](CN)Cc2cccc(F)c2)sc1Cl` [Compound B, N-{(1S)-2-amino-1-[(3-fluorophenyl)methyl]ethyl}-5-chloro-4-(4-chloro-1-methyl-1H-pyrazol-5-yl)-2-thiophenecarboxamide], for which the IC50 with SW837 was above 10000 nM; in the test on NCI-H23, 7120 ± 3800 nM; in the test on DLD1, above 10000 nM.

As usually defined, the IC50 is the concentration that inhibits the measured activity by half.
